Test results published in patent publication US20090137396A1, “Piperazine Compounds with a Herbicidal Action” (BASF SE, priority 2006, published 2009).

Experiments:
[1] = test system: test plants; assay: greenhouse experiment, post-emergence treatment, species not stated; type: in vivo; settings: post-emergence method; scale from 0 to 100
Excerpt: (§1) The seeds of the test plants were sown separately for each species. For the post-emergence treatment, the test plants were first grown to a height of 3 to 15 cm, depending on the plant habit, and only then treated with the active ingredients which had been suspended or emulsified in water. For this purpose, the test plants were either sown directly and grown in the same containers, or they were first grown separately as seedlings and transplanted into the test containers a few days prior to treatment. Depending on the species, the plants were kept at 10-25° C. or 20-35° C. The test period extended over 2 to 4 weeks. During this time, the plants were tended, and their response to the individual treatments was evaluated. Evaluation was carried out using a scale from 0 to 100. 100 means no emergence of the plants, or complete destruction of at least the aerial moieties, and 0 means no damage, or normal course of growth. Good herbicidal activity is given for values of at least 70 and very good herbicidal activity is given for values of at least 85. The plants used in the greenhouse experiments belonged to the following species: [table]

[2] = test system: test plants; assay: greenhouse experiment, pre-emergence treatment, species not stated; type: in vivo; settings: pre-emergence method; scale from 0 to 100
Excerpt: (§2) The seeds of the test plants were sown separately for each species. For the pre-emergence treatment, the active ingredients, which had been suspended or emulsified in water, were applied directly after sowing by means of finely distributing nozzles. The containers were irrigated gently to promote germination and growth and subsequently covered with transparent plastic hoods until the plants had rooted. This cover causes uniform germination of the test plants, unless this has been impaired by the active ingredients. Depending on the species, the plants were kept at 10-25° C. or 20-35° C. The test period extended over 2 to 4 weeks. During this time, the plants were tended, and their response to the individual treatments was evaluated. Evaluation was carried out using a scale from 0 to 100. 100 means no emergence of the plants, or complete destruction of at least the aerial moieties, and 0 means no damage, or normal course of growth. Good herbicidal activity is given for values of at least 70 and very good herbicidal activity is given for values of at least 85. The plants used in the greenhouse experiments belonged to the following species: [table]

[3] = test system: Amaranthus retroflexus (AMARE); assay: greenhouse experiment, pre-emergence treatment, AMARE; type: in vivo; settings: pre-emergence method, application rate 1 kg/ha; scale from 0 to 100
Excerpt: as §2

[4] = test system: Avena fatua (AVEFA); assay: greenhouse experiment, pre-emergence treatment, AVEFA; type: in vivo; settings: pre-emergence method, application rate 1 kg/ha; scale from 0 to 100
Excerpt: as §2

[5] = test system: Lulium perenne (LOLMU); assay: greenhouse experiment, post-emergence treatment, LOLMU; type: in vivo; settings: post-emergence method, application rate 1 kg/ha; scale from 0 to 100
Excerpt: as §1

[6] = test system: Abutilon theophrasti (ABUTH); assay: greenhouse experiment, pre-emergence treatment, ABUTH; type: in vivo; settings: pre-emergence method, application rate 3 kg/ha; scale from 0 to 100
Excerpt: as §2

[7] = test system: SETIT; assay: greenhouse experiment, pre-emergence treatment, SETIT; type: in vivo; settings: pre-emergence method, application rate 3 kg/ha; scale from 0 to 100
Excerpt: as §2

SMILES | herbicidal activity [1] | herbicidal activity [2] | other results
CN1C(=O)C(Cc2ccccc2)N(C)C(=O)C1=Cc1cc2c(cc1[N+](=O)[O-])OCO2 (single isomer, unassigned) [Example 16] | good to very good |  | 
Cc1cc(-c2ccccc2C=C2C(=O)N(C)C(Cc3ccccc3)C(=O)N2C)on1 (single isomer, unassigned) [Example 148] |  | good to very good | 
CN1C(=O)C(Cc2ccccc2)N(C)C(=O)C1=Cc1ccccc1-c1cncnc1 (stereo not shown) [Example 124] |  | good to very good | 
CN1C(=O)C(Cc2ccccc2)N(C)C(=O)C1=Cc1ccccc1-c1ncccn1 (single isomer, unassigned) [Example 100] |  | good to very good | 
CC(=O)N1C(=O)C(=Cc2ccccc2C#N)N(C)C(=O)C1Cc1ccccc1 (stereo not shown) [Example 140] |  | good to very good | 
CN1C(=O)C(Cc2ccccc2)N(C)C(=O)C1=Cc1ccncc1[N+](=O)[O-] (stereo not shown) [Example 196] |  |  | melting point: 180 °C
CN1C(=O)C(Cc2ccccc2)N(C(=O)c2ccccc2)C(=O)C1=Cc1ccccc1C#N (stereo not shown) [Example 137] |  | good to very good | herbicidal activity against AMARE [3]: good (Good herbicidal activity is given for values of at least 70)
CN1C(=O)C(Cc2ccccc2)N(C)C(=O)C1=Cc1ccccc1-c1cccnc1 (stereo not shown) [Example 51] | good to very good |  | 
CN1C(=O)C(Cc2ccccc2)N(C)C(=O)C1=Cc1ccccc1-c1ncco1 (single isomer, unassigned) [Example 45] |  | good to very good | 
CN1C(=O)C(Cc2ccccc2)N(C)C(=O)C1=Cc1ccccc1-c1nccs1 (single isomer, unassigned) [Example 44] | good to very good |  | 
CN1C(=O)C(Cc2ccccc2)N(C)C(=O)C1=Cc1c(F)cccc1I (stereo not shown) [Example 38] |  | good to very good | 
CN1C(=O)C(Cc2ccccc2)N(C)C(=O)C1=Cc1cccnc1C#N (stereo not shown) [Example 205] |  |  | melting point: 218 °C
CN1C(=O)C(Cc2ccccc2)N(C)C(=O)C1=Cc1c(Br)ccc(F)c1F (stereo not shown) [Example 119, 3-benzyl-1,4-dimethyl-6-(2-bromo-5,6-difluorobenzylidene)piperazine-2,5-dione] |  | good to very good | 
CN1C(=O)C(Cc2ccccc2)N(C)C(=O)C1=Cc1c(Cl)cccc1I (stereo not shown) [Example 40] |  | good to very good | 
CN1C(=O)C(Cc2ccccc2)N(C)C(=O)C1=Cc1ccccc1-c1cccs1 (stereo not shown) [Example 49] | good to very good |  | 
CN1C(=O)C(Cc2ccccc2)N(C)C(=O)C1=Cc1ccccc1-c1cnccn1 (single isomer, unassigned) [Example 110] |  | good to very good | 
CN1C(=O)C(Cc2ccccc2)N(C)C(=O)C1=C(Br)c1ccccc1C#N (stereo not shown) [Example 160] | good to very good |  | 
CN1C(=O)C(Cc2ccccc2)N(C)C(=O)C1=Cc1ccncc1[N+](=O)[O-] (stereo not shown) [Example 197] |  |  | melting point: 175 °C
CN1C(=O)C(Cc2ccccc2)N(C)C(=O)C1=Cc1ccccc1-c1ccco1 (single isomer, unassigned) [Example 48] | good to very good |  | 
CN1C(=O)C(Cc2ccccc2)N(C)C(=O)C1=Cc1c[nH]c2cccc([N+](=O)[O-])c12 (stereo not shown) [184] |  |  | melting point: 159 °C

SMILES | herbicidal activity [1] | herbicidal activity [2] | other results
CN1C(=O)C(Cc2ccccc2)N(C)C(=O)C1=Cc1ccccc1-c1cnccn1 (single isomer, unassigned) [Example 109] |  | good to very good | 
CN1C(=O)C(Cc2ccccc2)N(C)C(=O)C1=Cc1ccsc1[N+](=O)[O-] (stereo not shown) [Example 191] |  | good to very good | 
CN1C(=O)C(Cc2ccccc2)N(C)C(=O)C1=Cc1cnccc1I (stereo not shown) [Example 206] |  | good to very good | herbicidal activity against AVEFA [4]: good (Good herbicidal activity is given for values of at least 70)
CN1C(=O)[C@H](Cc2ccccc2)N(C)C(=O)C1=Cc1ccccc1[N+](=O)[O-] (stereo in doubt) [Example 1, 3-Benzyl-1,4-dimethyl-6-(2-nitrobenzylidene)piperazine-2,5-dione] | good to very good |  | herbicidal activity against LOLMU [5]: very good (very good herbicidal activity is given for values of at least 85)
CN1C(=O)C(Cc2ccccc2)N(C)C(=O)C1=Cc1c(C#N)ccc(F)c1F (stereo not shown) [Example 115, 3-Benzyl-1,4-dimethyl-6-(2-cyano-5,6-difluorobenzylidene)piperazine-2,5-dione] |  |  | melting point: 175 °C
Cc1coc(-c2ccccc2C=C2C(=O)N(C)C(Cc3ccccc3)C(=O)N2C)n1 (single isomer, unassigned) [Example 52] | good to very good |  | 
CN1C(=O)C(Cc2ccccc2)N(C)C(=O)C1=Cc1cc(F)ccc1Br (stereo not shown) [Example 62] |  | good to very good | 
CN1C(=O)C(Cc2ccccc2)N(C)C(=O)C1=Cc1cccnc1Br (stereo not shown) [Example 204] |  | good to very good | 
CN1C(=O)C(Cc2ccccc2)N(C)C(=O)C1=Cc1c[nH]c2cccc(Br)c12 (stereo not shown) [Example 199] |  |  | melting point: 236 °C
CN1C(=O)C(Cc2ccccc2)N(C)C(=O)C1=Cc1ccccc1-c1ncccn1 (single isomer, unassigned) [Example 101] |  | good to very good | 
CN1C(=O)C(Cc2ccccc2)N(C)C(=O)C1=Cc1c[nH]c2cccc([N+](=O)[O-])c12 (stereo not shown) [185] |  |  | melting point: 238 °C
CN1C(=O)C(Cc2ccccc2)N(C)C(=O)C1=Cc1ccccc1C(F)(F)F (stereo not shown) [Example 54] |  | good to very good | 
Cc1cccc([N+](=O)[O-])c1C=C1C(=O)N(C)C(Cc2ccccc2)C(=O)N1C (single isomer, unassigned) [Example 13] | good to very good |  | 
CN1C(=O)C(Cc2ccccc2)N(C)C(=O)C1=Cc1ncccc1[N+](=O)[O-] (stereo not shown) [Example 198] |  | good to very good | melting point: 165 °C
CN1C(=O)C(Cc2ccccc2)N(C)C(=O)C1=Cc1ccccc1-c1ccco1 (single isomer, unassigned) [Example 47] | good to very good |  | 
Cc1cc(-c2ccccc2C=C2C(=O)N(C)C(Cc3ccccc3)C(=O)N2C)on1 (single isomer, unassigned) [Example 147] |  | good to very good | 
C=Cc1ccccc1C=C1C(=O)N(C)C(Cc2ccccc2)C(=O)N1C (single isomer, unassigned) [Example 129] | good to very good |  | 
CCN1C(=O)C(Cc2ccccc2)N(CC)C(=O)C1=Cc1ccccc1Br (stereo not shown) [Example 170] | good to very good |  | 
COC(=O)c1ccccc1C=C1C(=O)N(C)C(Cc2ccccc2)C(=O)N1C (stereo not shown) [Example 73] |  | good to very good | herbicidal activity against ABUTH [6]: good (Good herbicidal activity is given for values of at least 70)
CN1C(=O)C(Cc2cccs2)N(C)C(=O)C1=Cc1ccccc1I (stereo not shown) [Example 214] |  | good to very good | herbicidal activity against SETIT [7]: good (Good herbicidal activity is given for values of at least 70)
